# Data published in patent publication US8501940B2, “Tetrahydrocinnoline derivatives” (Hoffmann-La Roche Inc., priority 2008, dated 2013).
# Molecular target: T1, human 11beta-HSD1 (Homo sapiens, UniProt P28845)
# T1 construct: made in house; host or cells: HEK293 cells (ATCC CRL-1573), transient transfection with a pcDNA3 construct; microsomal fraction used
# Assay: Microsome assay (cortisone to cortisol conversion, ELISA detection)
# Type: biochemical
# Settings: microsomes from HEK293 cells transiently expressing human 11beta-HSD1; Cortisone 50-200 nM, NADPH 1 mM; 60 min at 37° C.; cortisol by ELISA; read-out: h 11-beta-HSD 1 IC50
# Procedure: The cDNA encoding the human 11beta-HSD1 protein was cloned into the expression vector pcDNA3 (Stratagene). This construct (for details see Alex Odermatt et al.; J Biol Chem., 1999, Vol. 274, Issue 40, 28762-28770) was used to transiently express the protein in HEK293 cells (ATCC number: CRL-1573, described in Graham, F. L., Smiley, J., Russell, W. C., Nairn, R.; (1977)) using lipofectamine. 48 h after transfection cells were washed twice with ice-cold PBS (Phosphate buffered Saline). To 1 volume of cell suspension in PBS 2 volumes of ice-cold lysis buffer (50 mM Tris; pH7.5; 1 mM EDTA; 100 mM NaCl) were added. The cells were lysed by Potter-homogenization (20 strokes). The resulting homogenate was sonicated with a tip sonicator (10% output; 2×30 sec.) and cleared by a low speed centrifugation (10 min×9000 g; 4° C.). The microsomal fraction was collected by a high speed centrifugation (60 min×110,000 g). The resulting pellet was resuspended in storage buffer (20 mM Tris pH 7.5; 1 mM EDTA; 10% Glycerol) and the centrifugation was repeated. The resulting pellet containing the microsomal fraction was again taken up into storage buffer and aliquots were kept frozen in liquid Nitrogen until use.
# Microsomes isolated from HEK293 cells transiently expressing human 11beta-HSD1 (for details see above) were incubated in assay buffer (100 mM NaCl; 1 mM EDTA; 1 mM EGTA; 1 mM MgCl; 250 mM Sucrose; 20 mM Tris pH 7.4; Cortisone 50-200 nM and NADPH 1 mM) together with different concentrations of test substances. After 60 min. of incubation at 37° C. the assay was stopped by heating to 80° C. (5 min.) and by addition of the inhibitor Carbenoxolone (1 uM). The amount of Cortisol produced in this assay was determined using a commercially available, ELISA-based Cortisol-detection kit (Distributed by Assay Design, Inc.). Inhibitors were characterized by there IC50 values, e.g. the concentration at which the production of cortisol was 50% reduced.
# T1 sequence (P28845 whole entry): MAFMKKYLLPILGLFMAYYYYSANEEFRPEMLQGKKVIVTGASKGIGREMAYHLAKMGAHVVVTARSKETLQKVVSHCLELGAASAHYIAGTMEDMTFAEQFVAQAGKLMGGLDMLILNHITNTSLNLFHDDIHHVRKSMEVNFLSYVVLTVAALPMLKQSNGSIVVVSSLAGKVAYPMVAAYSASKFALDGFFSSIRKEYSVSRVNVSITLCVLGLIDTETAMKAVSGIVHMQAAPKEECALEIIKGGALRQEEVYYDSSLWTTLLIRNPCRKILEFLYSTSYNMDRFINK
row,SMILES,IC50
1,"FC(F)(F)c1ccc(Cl)cc1-c1cc2c(nn1)C1CCC2C12CC2 (stereo not drawn) [Example 24, (5′RS,8′SR)-3′-[5-chloro-2-(trifluoromethyl)phenyl]-5′,6′,7′,8′-tetrahydrospiro[cyclopropane-1,9′-[1′,2′]diaza[5′,8′]methanocinnoline]]",0.04 nM
2,"Fc1ccc(-c2cc3c(nn2)C2CCC3CC2)c(C(F)(F)F)c1 [Example 25, 3-[4-fluoro-2-(trifluoromethyl)phenyl]-5,6,7,8-tetrahydro-5,8-ethanocinnoline]",0.001 nM

# Further lines, results first:
row,IC50,SMILES
1,0.566 nM,"c1c(C2CC2)nnc2c1C1CCC2C12CC2 (single isomer, unassigned) [Example 5a, (5′R,8′S)-3′-cyclopropyl-5′,6′,7′,8′-tetrahydrospiro[cyclopropane-1,9′-[1′,2′]diaza[5′,8′]methanocinnoline]]"
2,0.001 nM,"CC1(Cc2cc3c(nn2)[C@H]2CC[C@@H]3C2(C)C)CC1 (racemic) [Example 16, (5RS,8SR)-9,9-dimethyl-3-[(1-methylcyclopropyl)methyl]-5,6,7,8-tetrahydro-5,8-methanocinnoline]"
3,0.004 nM,"CC(C)(C)Cc1cc2c(nn1)[C@H]1CC[C@@H]2C12CC2 [Example 1a, (5′R,8′S)-3′-(2,2-dimethylpropyl)-5′,6′,7′,8′-tetrahydrospiro[cyclopropane-1,9′-[1′,2′]diaza[5′,8′]methanocinnoline]]"
4,0.062 nM,"Cc1c(-c2cc3c(nn2)C2CCC3C23CCCC3)cnn1-c1ccccc1 (stereo not drawn) [Example 30, (5′RS,8′SR)-3′-(5-methyl-1-phenyl-1H-pyrazol-4-yl)-5′,6′,7′,8′-tetrahydrospiro[cyclopentane-1,9′-[1′,2′]diaza[5′,8′]methanocinnoline]]"

# System: men
# Assay: not given
# Settings: treatment with carbenoxolone in men; cited from earlier work
row,SMILES,insulin sensitivity
1,CC1(C)[C@@H](OC(=O)CCC(=O)O)CC[C@]2(C)[C@H]3C(=O)C=C4[C@@H]5C[C@@](C)(C(=O)O)CC[C@]5(C)CC[C@@]4(C)[C@]3(C)CC[C@@H]12 [carbenoxolone],increase in insulin sensitivity
